# Columns and labels:
# Format in all cases: biochemical
# [1] = target: human PLK4 (Homo sapiens (Human), UniProt O00444); assay: PLK4 inhibition assay (indirect ELISA); settings: read-out: PLK4 IC50 Ranges
# Method: PLK4 activity was measured using an indirect ELISA detection system. […] The colourimetric reaction was allowed to continue for 5 minutes, followed by addition of stop solution (0.5 N sulphuric acid), and quantified by detection at 450 nm with either a monochromatic or filter based plate reader (Molecular Devices M5 or Beckman DTX880, respectively).
# Compounds were pre-incubated in the presence of enzyme for 15 minutes prior to addition of ATP and the activity remaining quantified using the above described activity assay. […] The IC50 value was determined using a non-linear 4 point logistic curve fit (XLfit4, IDBS) with the formula; (A+(B/(1+((x/C)^D)))), where A=background value, B=range, C=inflection point, D=curve fit parameter.
# [2] = target: Aurora B (Homo sapiens (Human), UniProt Q96GD4); assay: Aurora B inhibition assay (Z-Lyte); settings: read-out: Aurora B IC50 Ranges
# Method: Aurora B inhibition was determined using the Z-Lyte assay kit from Invitrogen. […] The % inhibition values were determined according to the manufacturer's directions and IC50 values were obtained using a non-linear 4 point logistic curve fit (XLfit4, IDBS)
# [3] = target: FLT3 (Homo sapiens (Human), UniProt P36888); assay: FLT3 inhibition assay (Z-Lyte); settings: read-out: Flt3 IC50 Ranges
# Sequence of FLT3 (P36888 27-993): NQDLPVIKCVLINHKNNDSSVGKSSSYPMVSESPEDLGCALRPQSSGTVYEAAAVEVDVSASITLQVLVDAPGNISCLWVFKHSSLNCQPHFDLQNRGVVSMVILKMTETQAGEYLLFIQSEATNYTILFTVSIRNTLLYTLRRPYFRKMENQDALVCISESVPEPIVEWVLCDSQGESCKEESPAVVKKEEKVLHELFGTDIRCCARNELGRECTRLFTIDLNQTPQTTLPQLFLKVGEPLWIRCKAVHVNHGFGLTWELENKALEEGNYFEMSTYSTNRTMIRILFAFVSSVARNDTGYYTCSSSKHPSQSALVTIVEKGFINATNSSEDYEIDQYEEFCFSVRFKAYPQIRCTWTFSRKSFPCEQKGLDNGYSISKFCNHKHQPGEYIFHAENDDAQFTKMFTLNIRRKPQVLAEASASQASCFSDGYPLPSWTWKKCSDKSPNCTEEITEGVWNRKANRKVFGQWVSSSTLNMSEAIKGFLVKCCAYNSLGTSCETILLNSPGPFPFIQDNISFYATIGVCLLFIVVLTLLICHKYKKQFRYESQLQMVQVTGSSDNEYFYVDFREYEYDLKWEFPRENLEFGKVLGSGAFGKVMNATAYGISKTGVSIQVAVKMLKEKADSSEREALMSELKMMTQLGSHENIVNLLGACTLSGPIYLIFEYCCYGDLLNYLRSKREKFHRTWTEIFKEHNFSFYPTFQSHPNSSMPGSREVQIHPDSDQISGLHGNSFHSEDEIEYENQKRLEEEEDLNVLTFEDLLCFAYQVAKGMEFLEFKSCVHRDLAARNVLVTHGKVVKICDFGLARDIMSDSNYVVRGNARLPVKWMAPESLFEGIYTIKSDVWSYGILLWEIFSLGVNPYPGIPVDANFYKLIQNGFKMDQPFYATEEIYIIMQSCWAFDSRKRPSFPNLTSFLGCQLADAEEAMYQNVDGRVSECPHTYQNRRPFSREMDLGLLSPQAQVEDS
# Method: The enzymatic activity of FLT3 was determined using the Z-Lyte assay kit from Invitrogen (Invitrogen cat #PV3191). […] The % inhibition values were determined according to the manufacturer's directions and IC50 values were obtained using a non-linear 4 point logistic curve fit (XLfit4, IDBS).
# Sequence of Aurora B (Q96GD4 whole entry): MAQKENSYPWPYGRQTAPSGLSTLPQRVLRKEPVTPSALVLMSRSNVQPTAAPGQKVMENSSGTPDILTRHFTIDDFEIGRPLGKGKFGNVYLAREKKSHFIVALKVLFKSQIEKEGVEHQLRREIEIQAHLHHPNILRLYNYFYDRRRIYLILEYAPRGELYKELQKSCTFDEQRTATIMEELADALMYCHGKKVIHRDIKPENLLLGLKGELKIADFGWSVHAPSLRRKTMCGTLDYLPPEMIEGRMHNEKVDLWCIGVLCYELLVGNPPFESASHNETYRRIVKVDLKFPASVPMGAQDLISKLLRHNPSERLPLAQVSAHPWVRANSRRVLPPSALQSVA
# Sequence of human PLK4 (O00444 1-391): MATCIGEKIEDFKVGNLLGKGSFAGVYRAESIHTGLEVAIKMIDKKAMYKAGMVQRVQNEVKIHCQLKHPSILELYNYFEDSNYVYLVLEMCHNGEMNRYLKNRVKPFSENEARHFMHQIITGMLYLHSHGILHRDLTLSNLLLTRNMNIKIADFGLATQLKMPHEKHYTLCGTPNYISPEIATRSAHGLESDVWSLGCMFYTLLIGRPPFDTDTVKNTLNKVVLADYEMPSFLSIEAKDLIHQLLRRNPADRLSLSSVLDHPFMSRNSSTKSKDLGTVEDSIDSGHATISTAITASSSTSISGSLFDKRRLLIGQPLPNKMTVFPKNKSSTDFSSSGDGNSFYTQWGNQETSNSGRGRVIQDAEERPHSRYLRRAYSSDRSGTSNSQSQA
smiles,measurement,setting,value
"COc1ccc2c(c1)[C@]1(C[C@H]1c1ccc3c(-c4cccc(CN5CCCCC5)c4)n[nH]c3c1)C(=O)N2 (relative stereo) [Example A44, (1R*,2S*)-5′-methoxy-2-(3-(3-(piperidin-1-ylmethyl)phenyl)-1H-indazol-6-yl)spiro[cyclopropane-1,3′-indolin]-2′-one 2,2,2-trifluoroacetate]",IC50,[1],< 100 nM
same,IC50,[2],100 to 1000 nM
same,IC50,[3],> 1000 nM
"COc1ccc2c(c1)[C@]1(C[C@H]1c1ccc3c(-c4ccc(CO)cc4)n[nH]c3c1)C(=O)N2 (relative stereo) [Example A45, (1R*,2S*)-2-(3-(4-(hydroxymethyl)phenyl)-1H-indazol-6-yl)-5′-methoxyspiro[cyclopropane-1,3′-indolin]-2′-one 2,2,2-trifluoroacetate]",IC50,[1],< 100 nM
same,IC50,[2],100 to 1000 nM
same,IC50,[3],> 1000 nM
"COc1ccc2c(c1)[C@]1(C[C@H]1c1ccc3c(-c4cccc(N5CCNCC5)c4)n[nH]c3c1)C(=O)N2 (relative stereo) [Example A47, (1R*,2S*)-5′-methoxy-2-(3-(3-(piperazin-1-yl)phenyl)-1H-indazol-6-yl)spiro[cyclopropane-1,3′-indolin]-2′-one 2,2,2-trifluoroacetate]",IC50,[1],< 100 nM
same,IC50,[2],100 to 1000 nM
same,IC50,[3],> 1000 nM
"CCc1ccc2c(c1)[C@]1(C[C@H]1c1ccc3c(-c4cccc(CN5CCOCC5)c4)n[nH]c3c1)C(=O)N2 (relative stereo) [Example A141, (1R*,2S*)-5′-ethyl-2-(3-(3-(morpholinomethyl)phenyl)-1H-indazol-6-yl)spiro[cyclopropane-1,3′-indolin]-2′-one 2,2,2-trifluoroacetate]",IC50,[1],> 1000 nM
same,IC50,[2],> 1000 nM
same,IC50,[3],> 1000 nM
"COc1ccc2c(c1)[C@]1(C[C@H]1c1ccc3c(-c4ccc(N5CCN(C(C)C)CC5)cc4)n[nH]c3c1)C(=O)N2 [Example A97, (1R,2S)-2-(3-(4-(4-isopropylpiperazin-1-yl)phenyl)-1H-indazol-6-yl)-5′-methoxyspiro[cyclopropane-1,3′-indolin]-2′-one 2,2,2-trifluoroacetate]",IC50,[3],< 100 nM
"COc1ccc2c(c1)[C@]1(C[C@H]1c1ccc3c(-c4ccc(N5CC[C@H](N(C)C)C5)cc4)n[nH]c3c1)C(=O)N2 [Example A128, (1R,2S)-2-(3-(4-((S)-3-(dimethylamino)pyrrolidin-1-yl)phenyl)-1H-indazol-6-yl)-5′-methoxyspiro[cyclopropane-1,3′-indolin]-2′-one 2,2,2-trifluoroacetate]",IC50,[1],< 100 nM
same,IC50,[3],100 to 1000 nM
"COc1ccc2c(c1)[C@]1(C[C@H]1c1ccc3c(/C=C/c4cccc(CN5CCOCC5)c4)n[nH]c3c1)C(=O)N2 [Example A132, (1R,2S)-5′-methoxy-2-(3-(3-(morpholinomethyl)styryl)-1H-indazol-6-yl)spiro[cyclopropane-1,3′-indolin]-2′-one 2,2,2-trifluoroacetate]",IC50,[3],< 100 nM
"COc1ccc2c(c1)[C@]1(C[C@H]1c1ccc3c(/C=C/c4cccc(CN(C)C)c4)n[nH]c3c1)C(=O)N2 [Example A134, (1R,2S)-2-(3-(3-((dimethylamino)methyl)styryl)-1H-indazol-6-yl)-5′-methoxyspiro[cyclopropane-1,3′-indolin]-2′-one 2,2,2-trifluoroacetate]",IC50,[3],< 100 nM
"COc1ccc2c(c1)[C@]1(C[C@H]1c1ccc3c(/C=C/c4csc(CN5CCOCC5)c4)n[nH]c3c1)C(=O)N2 [Example A183, (1R,2S)-5′-methoxy-2-(3-((E)-2-(5-(morpholinomethyl)thiophen-3-yl)vinyl)-1H-indazol-6-yl)spiro[cyclopropane-1,3′-indolin]-2′-one 2,2,2-trifluoroacetate]",IC50,[1],< 100 nM
same,IC50,[2],< 100 nM
COc1ccc2c(c1)[C@]1(C[C@H]1c1ccc3c(/C=C/c4ccc(CN5C[C@@H](C)O[C@@H](C)C5)cc4)n[nH]c3c1)C(=O)N2 [Example A185],IC50,[3],100 to 1000 nM
"CCN1CCN(c2ccc(/C=C/c3n[nH]c4cc([C@@H]5C[C@@]56C(=O)Nc5ccc(OC)cc56)ccc34)cc2)CC1 [Example A187, (1R,2S)-(E)-2-(3-(4-(4-ethylpiperazin-1-yl)styryl)-1H-indazol-6-yl)-5′-methoxyspiro[cyclopropane-1,3′-indolin]-2′-one 2,2,2-trifluoroacetate]",IC50,[1],< 100 nM
same,IC50,[2],< 100 nM
"COc1ccc2c(c1)[C@]1(C[C@H]1c1ccc3c(-c4ccc(N5CCN(CCO)CC5)cc4)n[nH]c3c1)C(=O)N2 [Example A191, (1R,2S)-2-(3-(4-(4-(2-hydroxyethyl)piperazin-1-yl)phenyl)-1H-indazol-6-yl)-5′-methoxyspiro[cyclopropane-1,3′-indolin]-2′-one 2,2,2-trifluoroacetate]",IC50,[1],< 100 nM
same,IC50,[2],< 100 nM
"COc1ccc2c(c1)[C@]1(C[C@H]1c1ccc3c(-c4ccc(N5CCN(C6CCCCC6)CC5)cc4)n[nH]c3c1)C(=O)N2 [Example A193, (1R,2S)-2-(3-(4-(4-cyclohexylpiperazin-1-yl)phenyl)-1H-indazol-6-yl)-5′-methoxyspiro[cyclopropane-1,3′-indolin]-2′-one 2,2,2-trifluoroacetate]",IC50,[1],< 100 nM
same,IC50,[2],< 100 nM
"COc1ccc2c(c1)[C@]1(C[C@H]1c1ccc3c(/C=C/c4ccc(OCCN5CCOCC5)cc4)n[nH]c3c1)C(=O)N2 [Example A194, (1R,2S)-(E)-5′-methoxy-2-(3-(4-(2-morpholinoethoxy)styryl)-1H-indazol-6-yl)spiro[cyclopropane-1,3′-indolin]-2′-one 2,2,2-trifluoroacetate]",IC50,[1],< 100 nM
same,IC50,[2],< 100 nM
"COc1ccc2c(c1)[C@]1(C[C@H]1c1ccc3c(/C=C/c4cccnc4)n[nH]c3c1)C(=O)N2 [Example A197, (1R,2S)-5′-methoxy-2-(3-((E)-2-(pyridin-3-yl)vinyl)-1H-indazol-6-yl)spiro[cyclopropane-1,3′-indolin]-2′-one]",IC50,[1],< 100 nM
same,IC50,[2],< 100 nM
"COc1ccc2c(c1)[C@]1(C[C@H]1c1ccc3c(/C=C/c4ccc(CN5CCOCC5)c(F)c4)n[nH]c3c1)C(=O)N2 [Example A199, (1R,2S)-(E)-2-(3-(3-fluoro-4-(morpholinomethyl)styryl)-1H-indazol-6-yl)-5′-methoxyspiro[cyclopropane-1,3′-indolin]-2′-one 2,2,2-trifluoroacetate]",IC50,[1],< 100 nM
same,IC50,[2],< 100 nM
"O=C1Nc2ccccc2[C@]12C[C@H]2c1ccc2c(/C=C/c3ccc(CN4CCOCC4)c(F)c3)n[nH]c2c1 [Example A200, (1R,2S)-(E)-2-(3-(3-fluoro-4-(morpholinomethyl)styryl)-1H-indazol-6-yl)spiro[cyclopropane-1,3′-indolin]-2′-one 2,2,2-trifluoroacetate]",IC50,[1],< 100 nM
same,IC50,[2],< 100 nM
"C[C@@H]1CCC[C@H](C)N1Cc1ccc(/C=C/c2n[nH]c3cc([C@@H]4C[C@@]45C(=O)Nc4ccccc45)ccc23)cc1 [Example A201, (1R,2S)-(E)-2-(3-(4-((cis-2,6-dimethylpiperidin-1-yl)methyl)styryl)-1H-indazol-6-yl)spiro[cyclopropane-1,3′-indolin]-2′-one 2,2,2-trifluoroacetate]",IC50,[1],< 100 nM
same,IC50,[2],< 100 nM
"O=C1Nc2ccccc2[C@]12C[C@H]2c1ccc2c(/C=C/c3csc(CN4CCOCC4)c3)n[nH]c2c1 [Example A202, (1R,2S)-2-(3-((E)-2-(5-(morpholinomethyl)thiophen-3-yl)vinyl)-1H-indazol-6-yl)spiro[cyclopropane-1,3′-indolin]-2′-one 2,2,2-trifluoroacetate]",IC50,[1],< 100 nM
same,IC50,[2],< 100 nM
"COc1ccc2c(c1)[C@]1(C[C@H]1c1ccc3c(/C=C/c4ccc(CN5[C@H](C)CCC[C@@H]5C)cc4)n[nH]c3c1)C(=O)N2 [Example A203, (1R,2S)-(E)-2-(3-(4-((cis-2,6-dimethylpiperidin-1-yl)methyl)styryl)-1H-indazol-6-yl)-5′-methoxyspiro[cyclopropane-1,3′-indolin]-2′-one 2,2,2-trifluoroacetate]",IC50,[1],< 100 nM
same,IC50,[2],< 100 nM
"O=C1Nc2ccccc2[C@]12C[C@H]2c1ccc2c(/C=C/c3ccc(OCCN4CCOCC4)cc3)n[nH]c2c1 [Example A204, (1R,2S)-(E)-2-(3-(4-(2-morpholinoethoxy)styryl)-1H-indazol-6-yl)spiro[cyclopropane-1,3′-indolin]-2′-one 2,2,2-trifluoroacetate]",IC50,[1],< 100 nM
same,IC50,[2],< 100 nM
"O=C1Nc2ccccc2[C@]12C[C@H]2c1ccc2c(/C=C/c3ccc(CCN4CCOCC4)cc3)n[nH]c2c1 [Example A205, (1R,2S)-(E)-2-(3-(4-(2-morpholinoethyl)styryl)-1H-indazol-6-yl)spiro[cyclopropane-1,3′-indolin]-2′-one 2,2,2-trifluoroacetate]",IC50,[1],< 100 nM
same,IC50,[2],< 100 nM
"CCN(CC)Cc1ccc(/C=C/c2n[nH]c3cc([C@@H]4C[C@@]45C(=O)Nc4ccc(OC)cc45)ccc23)cc1 [Example A206, (1R,2S)-(E)-2-(3-(4-((diethylamino)methyl)styryl)-1H-indazol-6-yl)-5′-methoxy spiro[cyclopropane-1,3′-indolin]-2′-one 2,2,2-trifluoroacetate]",IC50,[1],< 100 nM
same,IC50,[2],< 100 nM
"COc1ccc2c(c1)[C@]1(C[C@H]1c1ccc3c(/C=C/c4cc(F)c(CN(C)C)c(F)c4)n[nH]c3c1)C(=O)N2 [Example A216, (1R,2S)-(E)-2-(3-(4-((dimethylamino)methyl)-3,5-difluorostyryl)-1H-indazol-6-yl)-5′-methoxyspiro[cyclopropane-1,3′-indolin]-2′-one 2,2,2-trifluoroacetate]",IC50,[1],< 100 nM
same,IC50,[2],< 100 nM
"CCN(CC)Cc1c(F)cc(/C=C/c2n[nH]c3cc([C@@H]4C[C@@]45C(=O)Nc4ccccc45)ccc23)cc1F [Example A221, (1R,2S)-(E)-2-(3-(4-((diethylamino)methyl)-3,5-difluorostyryl)-1H-indazol-6-yl)spiro[cyclopropane-1,3′-indolin]-2′-one 2,2,2-trifluoroacetate]",IC50,[1],< 100 nM
same,IC50,[2],< 100 nM
